From patent US20050255041A1, “Cancerous disease modifying antibodies” (Arius Research, Inc., priority 2004, published 2005)
Read-outs that look alike come from different tables or passages of the source.

Legend:
[1] = Live/Dead cytotoxicity assay, hybridoma supernatant; format: cell-based; settings: human, hybridoma supernatant (or cycloheximide positive control), calcein
Protocol: Three human breast cancer cell lines were tested: MDA-MB-231, MDA-MB-468 and SKBR-3. […] The wells that served as the positive controls were aspirated until empty and 100 μL of sodium azide (NaN3) or cycloheximide was added. After 5 days of treatment, the plates were then emptied by inverting and blotting dry. […] The AR2A72.10 hybridoma produced specific cytotoxicity of 15,27 and 44 percent in MDA-MB-231, MDA-MB-468 and SKBR-3 cells respectively. The known non-specific cytotoxic agent cycloheximide produced cytotoxicity as expected given the limitations of in vitro biological assays.

Hs888 Lu = settings: 5 days; AR2A72.10 and AR3BD-26 20 μg/mL, anti-fas and anti-Her2/neu 10 μg/mL, anti-EGFR 5 μg/mL, cycloheximide 0.5 μM, NaN3 0.1%
Protocol: Antibodies were tested against a panel of ovarian cancer, and normal cell lines. Two ovarian cancer (OVCAR-3, Sk-OV-3) and non-cancer (CCD-27sk, Hs888.Lu) cell lines were obtained from the ATCC, Manassas, Va. A2780-cp, A2780-s, C-13, OV2008, ES-2, Hey, OCC-1, OVCA-429 were obtained from the Ottawa Regional Cancer Center (Ottawa, ON). The Live/Dead cytotoxicity assay was obtained from Molecular Probes (Eugene, Oreg.). The assays were performed according to the manufacturer's instructions with the changes outlined below. Cells were plated before the assay at the predetermined appropriate density. After 2 days, purified antibody or controls were diluted into media, and then 100 microliters were transferred to the cell plates and incubated in a 5 percent CO2 incubator for 5 days. The plate was then emptied by inverting and blotted dry. Room temperature DPBS containing MgCl2 and CaCl2 was dispensed into each well from a multi-channel squeeze bottle, tapped three times, emptied by inversion and then blotted dry. 50 microliters of the fluorescent calcein dye diluted in DPBS containing MgCl2 and CaCl2 was added to each well and incubated at 37° C. in a 5 percent CO2 incubator for 30 minutes. […]

C[C@@H]1C[C@@H]([C@H](O)CC2CC(=O)NC(=O)C2)C(=O)[C@@H](C)C1 [Cycloheximide]
cytotoxicity at 5 days ([1]; read-out: Cytotoxicity (%) MDA-MB-231 Average): 49%
cytotoxicity at 5 days ([1]; read-out: Cytotoxicity (%) MDA-MB-468 Average): 24%
cytotoxicity at 5 days ([1]; read-out: Cytotoxicity (%) SKBR-3 Average): 56%

[N-]=[N+]=[N-] [NaN3, sodium azide]
In vitro cytotoxicity, Hs888 Lu (normal) (Hs888 Lu): +++ (4/4 experiments greater than threshold cytotoxicity)
